Measurements published in ChEMBL document CHEMBL4196076, “An access to a library of novel triterpene derivatives with a promising pharmacological potential by Ugi and Passerini multicomponent reactions” (Eur J Med Chem, 2018).

Experiments:
FaDu = assay: Cytotoxicity against human FADU cells after 96 hrs by sulforhodamine-B assay; format: functional, cell-based
A2780 [1] = assay: Cytotoxicity against human A2780 cells after 96 hrs by sulforhodamine-B assay; format: functional, cell-based; details: A2780, 96 h
A2780 [2] = assay: Cell cycle arrest in human A2780 cells assessed as accumulation at sub-G1 phase at 1.2 uM after 48 hrs by propidium iodide/RNase-staining based flow cytometric analysis; format: functional
A2780 [3] = assay: Cell cycle arrest in human A2780 cells assessed as accumulation at G2/M phase at 2 uM after 48 hrs by propidium iodide/RNase-staining based flow cytometric analysis (reference value: 12.9 +/- 1.4%); format: functional
A2780 [4] = assay: Induction of apoptosis in human A2780 cells assessed as vital cells at 1.2 uM after 48 hrs by Annexin V-FITC/propidium iodide staining-based flow cytometric analysis (reference value: 78.4 +/- 2.1%); format: functional
A2780 [5] = assay: Induction of apoptosis in human A2780 cells assessed as apoptotic cells at 1.2 uM after 48 hrs by Annexin V-FITC/propidium iodide staining-based flow cytometric analysis (reference value: 2.8 +/- 2.1%); format: functional
[6] = Selectivity index, ratio of EC50 for mouse NIH/3T3 cells to EC50 for human A2780 cells; format: toxicity; details: NIH/3T3 cells and A2780 cells, read-out: Ratio EC50
A2780 [7] = assay: Cell cycle arrest in human A2780 cells assessed as accumulation at G0/G1 phase at 1.2 uM after 48 hrs by propidium iodide/RNase-staining based flow cytometric analysis (reference value: 57.5 +/- 4.5%); format: functional
A2780 [8] = assay: Cell cycle arrest in human A2780 cells assessed as accumulation at G2/M phase at 1.2 uM after 48 hrs by propidium iodide/RNase-staining based flow cytometric analysis (reference value: 12.9 +/- 1.4%); format: functional
A2780 [9] = assay: Cell cycle arrest in human A2780 cells assessed as accumulation at S phase at 1.2 uM after 48 hrs by propidium iodide/RNase-staining based flow cytometric analysis (reference value: 29.6 +/- 3.1%); format: functional
518A2 = assay: Cytotoxicity against human 518A2 cells after 96 hrs by sulforhodamine-B assay; format: functional, cell-based; details: 518A2, 96 h
A549 = assay: Cytotoxicity against human A549 cells after 96 hrs by sulforhodamine-B assay; format: functional, cell-based; details: A549, 96 h
A2780 [10] = assay: Induction of apoptosis in human A2780 cells assessed as secondary necrotic cells at 2 uM after 48 hrs by Annexin V-FITC/propidium iodide staining-based flow cytometric analysis (reference value: 8.2 +/- 0.7%); format: functional
A2780 [11] = assay: Induction of apoptosis in human A2780 cells assessed as secondary necrotic cells at 1.2 uM after 48 hrs by Annexin V-FITC/propidium iodide staining-based flow cytometric analysis (reference value: 8.2 +/- 0.7%); format: functional
A2780 [12] = assay: Cell cycle arrest in human A2780 cells assessed as accumulation at G0/G1 phase at 2 uM after 48 hrs by propidium iodide/RNase-staining based flow cytometric analysis (reference value: 57.5 +/- 4.5%); format: functional
NIH3T3 = assay: Cytotoxicity against mouse NIH/3T3 cells after 96 hrs by sulforhodamine-B assay; format: cell-based; details: NIH3T3, 96 h
A2780 [13] = assay: Induction of apoptosis in human A2780 cells assessed as necrotic cells at 2 uM after 48 hrs by Annexin V-FITC/propidium iodide staining-based flow cytometric analysis (reference value: 10.6 +/- 1.2%); format: functional
HT-29 = assay: Cytotoxicity against human HT-29 cells after 96 hrs by sulforhodamine-B assay; format: functional, cell-based; details: HT-29, 96 h
A2780 [14] = assay: Cell cycle arrest in human A2780 cells assessed as accumulation at sub-G1 phase at 2 uM after 48 hrs by propidium iodide/RNase-staining based flow cytometric analysis; format: functional
A2780 [15] = assay: Induction of apoptosis in human A2780 cells assessed as necrotic cells at 1.2 uM after 48 hrs by Annexin V-FITC/propidium iodide staining-based flow cytometric analysis (reference value: 10.6 +/- 1.2%); format: functional
A2780 [16] = assay: Induction of apoptosis in human A2780 cells assessed as vital cells at 2 uM after 48 hrs by Annexin V-FITC/propidium iodide staining-based flow cytometric analysis (reference value: 78.4 +/- 2.1%); format: functional
A2780 [17] = assay: Induction of apoptosis in human A2780 cells assessed as apoptotic cells at 2 uM after 48 hrs by Annexin V-FITC/propidium iodide staining-based flow cytometric analysis (reference value: 2.8 +/- 2.1%); format: functional
A2780 [18] = assay: Cell cycle arrest in human A2780 cells assessed as accumulation at S phase at 2 uM after 48 hrs by propidium iodide/RNase-staining based flow cytometric analysis (reference value: 29.6 +/- 3.1%); format: functional
MCF7 = assay: Cytotoxicity against human MCF7 cells after 96 hrs by sulforhodamine-B assay; format: functional, cell-based; details: MCF7, 96 h
A2780 [19] = assay: Cytotoxicity against human A2780 cells assessed as morphological changes after 48 hrs by acridine orange/propidium iodide staining based fluorescence microscopic method; format: functional, cell-based

CC(=O)O[C@@H]1C[C@]2(C)[C@H]3CC=C4[C@@H]5CC(C)(C)CC[C@]5(C(=O)N(CC(=O)NCc5ccccc5)Cc5ccccc5)CC[C@@]4(C)[C@]3(C)CC[C@H]2C(C)(C)[C@H]1OC(C)=O
EC50 (FaDu): 2100 nM
EC50 (A2780 [1]): 300 nM
Activity (A2780 [2]): 6.8%
Activity (A2780 [3]): 5.1%
Activity (A2780 [4]): 72.7%
Activity (A2780 [5]): 4.2%
selectivity ratio [6]: 73
Activity (A2780 [7]): 57.1%
Activity (A2780 [8]): 7.6%
Activity (A2780 [9]): 28.7%
EC50 (518A2): 1200 nM
EC50 (A549): 2200 nM
Activity (A2780 [10]): 19.8%
Activity (A2780 [11]): 11.5%
Activity (A2780 [12]): 60.3%
EC50 (NIH3T3): 21900 nM
Activity (A2780 [13]): 16.7%
EC50 (HT-29): 2100 nM
Activity (A2780 [14]): 4.6%
Activity (A2780 [15]): 11.6%
Activity (A2780 [16]): 55.1%
Activity (A2780 [17]): 8.4%
Activity (A2780 [18]): 30.7%
EC50 (MCF7): 2100 nM
Activity (A2780 [19]): Dose-dependent effect
